For orientation: IC50 means the concentration that inhibits the measured activity by half.

This passage reports IC50 results from BindingDB's records for doi:10.1021/jm00058a012 (University of Arizona, 1993).

A short description of assay [1]: Inhibition of [3H]DPDPE binding to delta opioid receptor of guinea pig brain homogenate.
Assay in assay [2]: as above
This is another data set of the same source.

SMILES strings stand for the structures. Bridge positions count the residues as written; N and C are the ends. Square brackets hold non-standard residues; d marks the D form. Peptide text beside a SMILES is read from it. Pen = CC(C)(S)[C@H](N)C(=O)O

On to `CC(C)C[C@H](NC(=O)[C@H](Cc1ccccc1)NC(=O)CNC(=O)CNC(=O)[C@@H](N)Cc1ccc(O)cc1)C(=O)N[C@@H](CCCN=C(N)N)C(=O)N[C@@H](CCCN=C(N)N)C(=O)N[C@H]1CSSC[C@H](C(N)=O)NC(=O)[C@H](CC(C)C)NC(=O)[C@H](CCCCN)NC(=O)[C@@H]2CCCN2C(=O)[C@H](CCCN=C(N)N)NC1=O` [Tyr-Gly-Gly-Phe-Leu-Arg-Arg-c(Cys-Arg-Pro-Lys-Leu-Cys)], for which, in assay [1], the IC50 turned out to be 1.9 nM. In the case of `CC[C@H](C)[C@@H]1NC(=O)[C@H](CCCN=C(N)N)NC(=O)[C@H](CCCN=C(N)N)NC(=O)[C@@H](NC(=O)[C@H](Cc2ccccc2)NC(=O)CNC(=O)CNC(=O)[C@@H](N)Cc2ccc(O)cc2)CSSC[C@@H](C(=O)N[C@@H](CCCCN)C(N)=O)NC(=O)[C@H](CCCN=C(N)N)NC1=O` [Tyr-Gly-Gly-Phe-c(Cys-Arg-Arg-Ile-Arg-Cys)-lys] (H-YGGFCRRIRCK-NH2; disulfide 5-10), in assay [1], the IC50 worked out at 83 nM. This IC50 is about 44-fold higher than that of the molecule before.

`CC(C)C[C@H](NC(=O)[C@H](Cc1ccccc1)NC(=O)CNC(=O)CNC(=O)[C@@H](N)Cc1ccc(O)cc1)C(=O)N[C@@H](CCCNC(=N)N)C(=O)N[C@@H](CCCNC(=N)N)C(=O)N[C@@H]1CSSC[C@H](C(=O)N[C@@H](CCCCN)C(N)=O)NC(=O)[C@H](CCCCN)NC(=O)[C@@H]2CCCN2C(=O)[C@H](CCCNC(=N)N)NC1=O` [Tyr-Gly-Gly-Phe-Leu-Arg-Arg-c((D-Cys)-Arg-Pro-Lys-(D-Cys))-Lys] yielded an IC50 in assay [1] of 6.5 nM. The same measure, in the same setting: under `CC[C@H](C)[C@@H]1NC(=O)[C@H](CCCNC(=N)N)NC(=O)[C@@H](NC(=O)[C@H](CC(C)C)NC(=O)[C@H](Cc2ccccc2)NC(=O)CNC(=O)CNC(=O)[C@@H](N)Cc2ccc(O)cc2)CSSC[C@@H](C(=O)N[C@@H](CCCCN)C(N)=O)NC(=O)[C@H](CCCNC(=N)N)NC1=O` [Tyr-Gly-Gly-Phe-leu-c(Cys-Arg-Ile-Arg-Cys)-lys] (H-YGGFLCRIRCK-NH2; disulfide 6-10) stands 0.475 nM. `CC[C@H](C)[C@H](NC(=O)[C@H](CCCN=C(N)N)NC(=O)[C@H](CCCN=C(N)N)NC(=O)[C@H](CC(C)C)NC(=O)[C@H](Cc1ccccc1)NC(=O)CNC(=O)CNC(=O)[C@@H](N)Cc1ccc(O)cc1)C(=O)N[C@@H](CCCN=C(N)N)C(=O)N1CCC[C@H]1C(=O)N[C@@H](CCCCN)C(=O)N[C@@H](CC(C)C)C(=O)N[C@@H](CCCCN)C(=O)O` [Dynorphin A (1-13)] registered a concentration for half-maximal inhibition (IC50) in assay [1] of 4.1 nM. This IC50 lies about 8.6-fold higher than the previous one.

In assay [1], `CC[C@H](C)[C@@H]1NC(=O)[C@H](CCCN=C(N)N)NC(=O)[C@H](CCCN=C(N)N)NC(=O)[C@@H](NC(=O)[C@H](Cc2ccccc2)NC(=O)CNC(=O)[C@@H](C)NC(=O)[C@@H](N)Cc2ccc(O)cc2)CSSC[C@@H](C(N)=O)NC(=O)[C@@H]2CCCN2C(=O)[C@H](CCCN=C(N)N)NC1=O` [Tyr-(D-ala)-Gly-Phe-c(Cys-Arg-Arg-Ile-Arg-Pro-Cys)] registered an IC50 of 107 nM.

Consider `CC[C@H](C)[C@@H]1NC(=O)[C@H](CCCNC(=N)N)NC(=O)[C@H](CCCNC(=N)N)NC(=O)[C@@H](NC(=O)[C@H](Cc2ccccc2)NC(=O)CNC(=O)CNC(=O)[C@@H](N)Cc2ccc(O)cc2)CSSC[C@@H](C(N)=O)NC(=O)[C@H](CC(C)C)NC(=O)[C@H](CCCCN)NC(=O)[C@H]2CCCN2C(=O)[C@H](CCCNC(=N)N)NC1=O` [Tyr-Gly-Gly-Phe-c(Cys-Arg-Arg-Ile-Arg-(D-Pro)-Lys-Leu-Cys)], for which the IC50 in assay [1] is 9.6 nM. Turning to `CC[C@H](C)[C@@H]1NC(=O)[C@H](CCCN=C(N)N)NC(=O)[C@H](CCCN=C(N)N)NC(=O)[C@@H](NC(=O)[C@H](Cc2ccccc2)NC(=O)CNC(=O)CNC(=O)[C@@H](N)Cc2ccc(O)cc2)C(C)(C)SSC[C@@H](C(N)=O)NC(=O)[C@@H]2CCCN2C(=O)[C@H](CCCN=C(N)N)NC1=O` [Tyr-Gly-Gly-Phe-c((L-Pen)-Arg-Arg-Ile-Arg-Pro-Cys)] (H-YGGF[Pen]RRIRPC-NH2; disulfide 5-11), the IC50 in assay [1] came to 86 nM. This IC50 is about 9-fold higher than that of the molecule before. On to `CC[C@H](C)[C@@H]1NC(=O)[C@H](CCCN=C(N)N)NC(=O)[C@H](CCCN=C(N)N)NC(=O)[C@@H](NC(=O)[C@H](Cc2ccccc2)NC(=O)CNC(=O)CNC(=O)[C@@H](N)Cc2ccc(O)cc2)CSSC[C@@H](C(=O)N[C@@H](CCCN=C(N)N)C(=O)N[C@@H](CCCCN)C(N)=O)NC1=O` [Tyr-Gly-Gly-Phe-c(Cys-Arg-Arg-Ile-Cys)-Arg-lys] (H-YGGFCRRICRK-NH2; disulfide 5-9), for which, in assay [2], the half-maximal inhibitory concentration (IC50) was found to be 18 nM. On to `CC[C@H](C)[C@@H]1NC(=O)[C@H](CCCN=C(N)N)NC(=O)[C@H](CCCN=C(N)N)NC(=O)[C@@H](NC(=O)[C@H](Cc2ccccc2)NC(=O)CNC(=O)CNC(=O)[C@@H](N)Cc2ccc(O)cc2)CSSC[C@@H](C(=O)N2CCC[C@H]2C(=O)N[C@@H](CCCCN)C(N)=O)NC1=O` [Tyr-Gly-Gly-Phe-c(Cys-Arg-Arg-Ile-Cys)-Pro-lys] (H-YGGFCRRICPK-NH2; disulfide 5-9), for which the half-maximal inhibitory concentration (IC50) in assay [1] came to 31 nM. For the molecule `CC[C@H](C)[C@@H]1NC(=O)[C@H](CCCN=C(N)N)NC(=O)[C@H](CCCN=C(N)N)NC(=O)[C@@H](NC(=O)[C@@H]2Cc3ccccc3CN2C(=O)CNC(=O)CNC(=O)[C@@H](N)Cc2ccc(O)cc2)CSSC[C@@H](C(=O)O)NC(=O)[C@@H]2CCCN2C(=O)[C@H](CCCN=C(N)N)NC1=O` [Tyr-Gly-Gly-(L-Tic)-c(Cys-Arg-Arg-Ile-Arg-Pro-Cys)], in assay [1], the IC50 turned out to be 181 nM.

In assay [1], `CC[C@H](C)[C@@H]1NC(=O)[C@H](CCCNC(=N)N)NC(=O)[C@H](CCCNC(=N)N)NC(=O)[C@@H](NC(=O)[C@H](Cc2ccccc2)NC(=O)CNC(=O)CNC(=O)[C@@H](N)Cc2ccccc2)CSSC[C@@H](C(N)=O)NC(=O)[C@@H]2CCCN2C(=O)[C@H](CCCNC(=N)N)NC1=O` [Phe-Gly-Gly-Phe-c(Cys-Arg-Arg-Ile-Arg-Pro-Cys)] (H-FGGFCRRIRPC-NH2; disulfide 5-11) showed an IC50 of 389 nM.
